Measured values: ChEMBL document CHEMBL1201861, “Genomics of Drug Sensitity in Cancer screening data, Wellcome Trust Sanger Institute”

What was measured:
Assay in all cases: cells
Type in all cases: functional, cell-based, Homo sapiens
NCI-H748 = details: Homo sapiens, NCI-H748;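 note: growth inhibition of NCI-H748 cells, measured by a cell viability assay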
Description: SANGER: Inhibition of human NCI-H748 cell growth in a cell viability assay.

GDM-1 = details: Homo sapiens, GDM-1;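 note: cell viability readout used to measure growth inhibition of human GDM-1 cells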
Description: SANGER: Inhibition of human GDM-1 cell growth in a cell viability assay.

CAL-148 = details: Homo sapiens, CAL-148
Description: SANGER: Inhibition of human CAL-148 cell growth in a cell viability assay.

NCI-H1963 = details: Homo sapiens, NCI-H1963;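 note: cell growth inhibition of the human line, determined with a cell viability assay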
Description: SANGER: Inhibition of human NCI-H1963 cell growth in a cell viability assay.

SUP-T1 = details: Homo sapiens, SUP-T1;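 note: growth inhibition of human SUP-T1 cells, read out as cell viability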
Description: SANGER: Inhibition of human SUP-T1 cell growth in a cell viability assay.

NCI-H2141 = details: Homo sapiens, NCI-H2141;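 note: growth inhibition of human NCI-H2141 cells, read out with a cell viability assay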
Description: SANGER: Inhibition of human NCI-H2141 cell growth in a cell viability assay.

KMS-12-PE = details: Homo sapiens, KMS-12-PE;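 note: growth inhibition of human KMS-12-PE cells, measured with a cell viability assay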
Description: SANGER: Inhibition of human KMS-12-PE cell growth in a cell viability assay.

LU-165 = details: Homo sapiens, LU-165
Description: SANGER: Inhibition of human LU-165 cell growth in a cell viability assay.

EB-3 = details: Homo sapiens, EB-3;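 note: human EB-3 cells, growth inhibition read out via a cell viability assay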
Description: SANGER: Inhibition of human EB-3 cell growth in a cell viability assay.

SCLC-21H = details: Homo sapiens, SCLC-21H;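 note: growth inhibition of cultured human SCLC-21H cells, read out with a cell viability assay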
Description: SANGER: Inhibition of human SCLC-21H cell growth in a cell viability assay.

LOUCY = details: Homo sapiens, LOUCY;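 note: growth inhibition of human LOUCY cells, read out with a cell viability assay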
Description: SANGER: Inhibition of human LOUCY cell growth in a cell viability assay.

Row | SMILES | IC50 (NCI-H748) | IC50 (GDM-1) | IC50 (CAL-148) | IC50 (NCI-H1963) | IC50 (SUP-T1) | IC50 (NCI-H2141) | IC50 (KMS-12-PE) | IC50 (LU-165) | IC50 (EB-3) | IC50 (SCLC-21H) | IC50 (LOUCY)
1 | COc1cc(N2CCN(C)CC2)ccc1Nc1ncc2c(n1)N(C)c1ccccc1C(=O)N2C | > 8 µM | > 8 µM | > 8 µM | > 8 µM | 2.23 µM | > 8 µM | > 8 µM | > 8 µM | > 8 µM | > 8 µM | > 8 µM
2 | COc1cc(-c2nn([C@H]3CC[C@H](N4CCN(C(C)=O)CC4)CC3)c3ncnc(N)c23)ccc1NC(=O)c1cc2ccccc2n1C | > 5.12 µM | > 5.12 µM | > 5.12 µM | > 5.12 µM | > 5.12 µM | > 5.12 µM | > 5.12 µM | > 5.12 µM | > 5.12 µM | > 5.12 µM | > 5.12 µM
3 | OCCCNc1cc(-c2ccnc(Nc3cccc(Cl)c3)n2)ccn1 | 0.0764 µM | > 0.256 µM | 0.199 µM | 0.0931 µM | > 0.256 µM | 0.102 µM | > 0.256 µM | > 0.256 µM | 0.0648 µM | > 0.256 µM | 0.0622 µM
4 | Cc1ccc(-c2c(C(=O)CCl)n(CCCO)c3ncnc(N)c23)cc1 | > 4 µM | > 4 µM | > 4 µM | > 4 µM | > 4 µM | > 4 µM | > 4 µM | > 4 µM | > 4 µM | > 4 µM | > 4 µM
5 | C#Cc1cccc(Nc2ncnc3cc(OCCOC)c(OCCOC)cc23)c1 [ERLOTINIB] | > 2 µM | > 2 µM | – | > 2 µM | > 2 µM | > 2 µM | > 2 µM | > 2 µM | > 2 µM | – | > 2 µM
6 | COc1cc2ncn(-c3cc(OCc4ccccc4S(C)(=O)=O)c(C#N)s3)c2cc1OC [GSK-319347A] | > 5 µM | > 5 µM | > 5 µM | > 5 µM | > 5 µM | > 5 µM | > 5 µM | > 5 µM | > 5 µM | > 5 µM | > 5 µM
7 | COc1cc2ncn(-c3cc(OCc4ccccc4C(F)(F)F)c(C(N)=O)s3)c2cc1OC [GW843682X] | > 0.256 µM | 0.0508 µM | 0.0907 µM | 0.0138 µM | > 0.256 µM | 0.159 µM | > 0.256 µM | > 0.256 µM | > 0.256 µM | 0.0902 µM | 0.0159 µM
8 | CC(=O)O[C@H]1C(=O)[C@@]2(C)[C@H]([C@H](OC(=O)c3ccccc3)[C@]3(O)C[C@H](OC(=O)[C@H](O)[C@@H](NC(=O)c4ccccc4)c4ccccc4)C(C)=C1C3(C)C)[C@]1(OC(C)=O)CO[C@@H]1C[C@@H]2O [PACLITAXEL] | > 0.102 µM | > 0.102 µM | 0.0544 µM | 0.0313 µM | > 0.102 µM | 0.081 µM | > 0.102 µM | > 0.102 µM | > 0.102 µM | 0.0588 µM | 0.00775 µM
9 | N[C@@H](CSC(c1ccccc1)(c1ccccc1)c1ccccc1)C(=O)O [S-TRITYL-L-CYSTEINE] | > 5.12 µM | 2.49 µM | 4.35 µM | 1.15 µM | > 5.12 µM | 4.36 µM | > 5.12 µM | > 5.12 µM | > 5.12 µM | 2.83 µM | 0.48 µM
10 | CC[C@H](CO)Nc1nc(NCc2ccccc2)c2ncn(C(C)C)c2n1 [SELICICLIB] | > 16 µM | > 16 µM | > 16 µM | > 16 µM | > 16 µM | > 16 µM | > 16 µM | > 16 µM | > 16 µM | > 16 µM | > 16 µM
11 | CCN(CC)CCNC(=O)c1c(C)[nH]c(/C=C2\C(=O)Nc3ccc(F)cc32)c1C [SUNITINIB] | > 8 µM | > 8 µM | > 8 µM | > 8 µM | > 8 µM | > 8 µM | > 8 µM | > 8 µM | > 8 µM | > 8 µM | > 8 µM
